Experimental data taken from patent publication US9029337B2, “Modulation of factor 7 expression” (Isis Pharmaceuticals, Inc., priority 2007, dated 2015).
e = 2'-O-(2-methoxyethyl) (MOE); d = 2'-deoxy (DNA)

Legend:
platelet factor-4 (PF-4) = experiment: Thrombus formation by real-time RT-PCR quantification of PF-4 in the FeCl3 induced venous thrombosis model; format: in vivo, mouse; conditions: for PF-4 (percentage of PF-4 as compared to the PBS-treated control groups): BALB/c mice, vena cava, FeCl3
Description: Three groups of BALB/c mice were injected with 25 mg/kg, 37.5 mg/kg, or 50 mg/kg of ISIS 403102, administered subcutaneously twice a week for 3 weeks. Two control groups of BALB/c mice were treated with PBS, administered subcutaneously twice a week for 3 weeks. Thrombus formation was induced with FeCl3 in half of the mice while the rest of the mice were assayed for tail bleeding. Two days after receiving the last dose of ISIS 403102 or PBS, mice were anesthetized with 150 mg/kg ketamine mixed with 10 mg/kg xylazine administered by intraperitoneal injection. Thrombus formation was induced with FeCl3 in all groups of the VT mice except the first control group.
In mice undergoing FeCl3 treatment, thrombus formation was induced by applying a piece of filter paper (2×4 mm) pre-saturated with 10% FeCl3 solution directly on the vena cava. After 3 minutes of exposure, the filter paper was removed. Thirty minutes after the filter paper application, a fixed length of the vein containing the thrombus was dissected out for platelet analysis. Liver was collected for RNA analysis.
(§1) Real-time RT-PCR quantification of platelet factor-4 (PF-4) was used to quantify platelets in the vena cava as a measure of thrombus formation. Results are presented as a percentage of PF-4 in ISIS 403102, as compared to the two PBS-treated control groups. […] Therefore, antisense oligonucleotides are useful for inhibiting thrombus and clot formation.
ISIS 403102 and warfarin (Coumadin®) were evaluated in BALB/c mice. Four groups of BALB/c mice were treated with 5 mg/kg, 10 mg/kg, 20 mg/kg, or 40 mg/kg of ISIS 403102, administered subcutaneously twice a week for 3 weeks. Two days after receiving the last dose of ISIS 403102, mice were anesthetized with 150 mg/kg ketamine mixed with 10 mg/kg xylazine administered by intraperitoneal injection. Six additional groups of BALB/c mice was treated with 0.5 mg/kg, 1 mg/kg, 2 mg·kg, 3 mg/kg, 4 mg/kg, or 5 mg/kg of warfarin, administered intraperioneally daily for 6 days. Four hours after the last dose of warfarin, mice were sacrificed. A control group of BALB/c mice were treated with PBS, administered subcutaneously twice a week for 3 weeks. Two days after the last dose of PBS, mice were anesthetized with 150 mg/kg ketamine mixed with 10 mg/kg xylazine administered by intraperitoneal injection. Thrombus formation was induced with FeCl3 in groups of mice except the first control group.
as §1, with “403102 or warfarin treated mice,” for “403102,”, “Therefore, ISIS” for “Therefore,”

BALB/c mice = experiment: Tail bleeding assay; format: in vivo, mouse; conditions: mouse, in vivo
Description: (§2) Mice not receiving treatment with FeCl3 solution were evaluated in a tail bleeding chamber. Mice were placed into the bleeding chamber two days after the final treatment of ISIS 403102 or PBS. Mice were anesthetized in the chamber with isofluorane and a small piece of tail (approximately 4 mm from the tip) was cut with sterile scissors. The cut tail was immediately placed in a 15 mL Falcon tube filled with approximately 10 mL of 0.9% NaCl buffer solution warmed to 37° C. The blood was collected over the course of 40 minutes. The saline filled tubes were weighed both before and after bleeding.
Tail-bleeding was measured to observe whether treatment with ISIS 403102 or warfarin causes internal hemorrhage in mice. ISIS 403102 and warfarin (Coumadin®) were evaluated in the tail bleeding assay. Six groups of BALB/c mice were treated with 1.25 mg/kg, 2.5 mg/kg, 5 mg/kg, 10 mg/kg, 20 mg/kg, or 40 mg/kg of ISIS 403102, administered subcutaneously twice a week for 3 weeks. An additional 6 groups of BALB/c mice were treated with 0.5 mg/kg, 1 mg/kg, 2 mg/kg, 3 mg/kg, 4 mg/kg, and 5 mg/kg of warfarin, administered intraperioneally daily for 6 days. A separate control group of BALB/c mice was treated with PBS, administered subcutaneously twice a week for 3 weeks.
as §2, with “Two” for “Mice not receiving treatment with FeCl3 solution were evaluated in a tail bleeding chamber. Mice were placed into the bleeding chamber two”, “403102, warfarin,” for “403102”, “PBS, mice were placed in a tail bleeding chamber.” for “PBS.”
ISIS 403102 and Apixaban were evaluated in BALB/c mice. In a first group of BALB/c mice, 40 mg/kg of ISIS 403102 was administered subcutaneously twice a week for 3 weeks. An additional 3 groups of BALB/c mice were treated with 5 mg/kg and 10 mg/kg of Apixaban, administered in a single intraperitoneal dose, and 10 mg/kg of Apixaban administered as a single subcutaneous dose. A control group of BALB/c mice was treated with PBS, administered subcutaneously twice a week for 3 weeks.
as §2, with “Two” for “Mice not receiving treatment with FeCl3 solution were evaluated in a tail bleeding chamber. Mice were placed into the bleeding chamber two”, “PBS, mice were placed in a tail bleeding chamber. Mice from the groups treated with Apixaban were analyzed 30 minutes after the single dose.” for “PBS.”, “weighed” for “weighed both”

CCATAGAACAGCTTCACAGG (sugars from the 5' end e5 d10 e5, backbone and methylation of C not given here) [ISIS 403102]
PF-4 in comparison to the PBS control (platelet factor-4 (PF-4); Example 14, 25, 37.5, 50 mg/kg twice a week for 3 weeks): reduction of PF-4 | PF-4 (percentage of PF-4 as compared to the PBS-treated control groups) (platelet factor-4 (PF-4); Example 14, 25 mg/kg s.c. twice a week for 3 weeks): 34% | PF-4 (percentage of PF-4 as compared to the PBS-treated control groups) (platelet factor-4 (PF-4); Example 14, 37.5 mg/kg s.c. twice a week for 3 weeks): 24% | PF-4 (percentage of PF-4 as compared to the PBS-treated control groups) (platelet factor-4 (PF-4); Example 14, 50 mg/kg s.c. twice a week for 3 weeks): 24% | PF-4 (percentage of PF-4 as compared to the PBS-treated control groups) (platelet factor-4 (PF-4); Example 16, 5 mg/kg s.c. twice a week for 3 weeks): 69% | PF-4 (percentage of PF-4 as compared to the PBS-treated control groups) (platelet factor-4 (PF-4); Example 16, 10 mg/kg s.c. twice a week for 3 weeks): 22% | PF-4 (percentage of PF-4 as compared to the PBS-treated control groups) (platelet factor-4 (PF-4); Example 16, 20 mg/kg s.c. twice a week for 3 weeks): 41% | PF-4 (percentage of PF-4 as compared to the PBS-treated control groups) (platelet factor-4 (PF-4); Example 16, 40 mg/kg s.c. twice a week for 3 weeks): 38% | PF-4 in comparison to the PBS control (platelet factor-4 (PF-4); Example 16, dosages of 5 mg/kg and higher, twice a week for 3 weeks): dose-dependent reduction of PF-4 | amount of bleeding in comparison to PBS treated mice (BALB/c mice): slight decrease in the amount of bleeding | bleeding as compared to PBS control mice (BALB/c mice): did not significantly affect bleeding | amount of bleeding in comparison to PBS treated mice (BALB/c mice; 50 mg/kg): Bleeding was the same | Blood (g), tail bleeding (BALB/c mice; sc, 40 mg/kg): 0.10 g | bleeding compared to PBS treated mice (BALB/c mice; sc, 40 mg/kg): less bleeding than PBS treated mice
